Experimental data taken from the supplement of paper PMC10307832.

Legend:
Test in all cases: relative viability (nuclei count vs DMSO), 5 days (fraction); higher = more cells survive
[1] = system: BEN
Summary of the method: (§1)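 Lung cancer cell lines in 1536-well plates got either a single drug or a fixed anchor-drug dose together with five library-drug doses (not always all listed) in √10 steps, by pin tool, on the day after seeding. Nuclei were counted after 5 days, and relative viability is the treated-to-vehicle ratio of nuclei counts. Values are medians of duplicate plates.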

[2] = system: EKVX
Summary of the method: as §1

[3] = system: HARA
Summary of the method: as §1

[4] = system: HCC-827
Summary of the method: as §1

[5] = system: LOU-NH91
Summary of the method: as §1

[6] = system: NCI-H1355
Summary of the method: as §1

[7] = system: NCI-H1395
Summary of the method: as §1

[8] = system: NCI-H1437
Summary of the method: as §1

[9] = system: NCI-H1734
Summary of the method: as §1

[10] = system: NCI-H1792
Summary of the method: as §1

[11] = system: NCI-H1993
Summary of the method: as §1

[12] = system: NCI-H2009
Summary of the method: as §1

[13] = system: NCI-H2087
Summary of the method: as §1

[14] = system: NCI-H2170
Summary of the method: as §1

[15] = system: NCI-H2342
Summary of the method: as §1

[16] = system: NCI-H2405
Summary of the method: as §1

[17] = system: NCI-H522
Summary of the method: as §1

[18] = system: NCI-H647
Summary of the method: as §1

[19] = system: NCI-H661
Summary of the method: as §1

[20] = system: SK-LU-1
Summary of the method: as §1

[21] = system: SK-MES-1
Summary of the method: as §1

Cc1sc2c(c1C)C(c1ccc(Cl)cc1)=N[C@@H](CC(=O)OC(C)(C)C)c1nnc(C)n1-2 [JQ1] + CCNC(=O)c1noc(-c2cc(C(C)C)c(O)cc2O)c1-c1ccc(CN2CCOCC2)cc1 [Luminespib] (partner 0.01 µM)
relative viability ([1]; first compound 0.04 µM): 0.259 | relative viability ([1]; first compound 0.1265 µM): 0.329 | relative viability ([1]; first compound 0.4 µM): 0.379 | relative viability ([1]; first compound 1.265 µM): 0.126 | relative viability ([1]; first compound 4 µM): 0.169 | relative viability ([2]; first compound 0.04 µM): 0.832 | relative viability ([2]; first compound 0.1265 µM): 0.877 | relative viability ([2]; first compound 0.4 µM): 0.895 | relative viability ([2]; first compound 1.265 µM): 0.824 | relative viability ([2]; first compound 4 µM): 0.572 | relative viability ([3]; first compound 0.04 µM): 0.65 | relative viability ([3]; first compound 0.1265 µM): 0.508 | relative viability ([3]; first compound 0.4 µM): 0.374 | relative viability ([3]; first compound 1.265 µM): 0.168 | relative viability ([3]; first compound 4 µM): 0.153 | relative viability ([4]; first compound 0.04 µM): 0.887 | relative viability ([4]; first compound 0.4 µM): 0.424 | relative viability ([4]; first compound 1.265 µM): 0.624 | relative viability ([4]; first compound 4 µM): 0.59 | relative viability ([5]; first compound 0.04 µM): 0.371 | relative viability ([5]; first compound 0.1265 µM): 0.371 | relative viability ([5]; first compound 0.4 µM): 0.31 | relative viability ([5]; first compound 1.265 µM): 0.285 | relative viability ([5]; first compound 4 µM): 0.271 | relative viability ([6]; first compound 0.04 µM): 0.715 | relative viability ([6]; first compound 0.1265 µM): 0.715 | relative viability ([6]; first compound 0.4 µM): 0.453 | relative viability ([6]; first compound 1.265 µM): 0.359 | relative viability ([6]; first compound 4 µM): 0.339 | relative viability ([7]; first compound 0.04 µM): 0.761 | relative viability ([7]; first compound 0.1265 µM): 0.681 | relative viability ([7]; first compound 0.4 µM): 0.808 | relative viability ([7]; first compound 1.265 µM): 0.399 | relative viability ([7]; first compound 4 µM): 0.458 | relative viability ([8]; first compound 0.04 µM): 1.1 | relative viability ([8]; first compound 0.1265 µM): 1.09 | relative viability ([8]; first compound 0.4 µM): 1.11 | relative viability ([8]; first compound 1.265 µM): 0.617 | relative viability ([8]; first compound 4 µM): 0.393 | relative viability ([9]; first compound 0.04 µM): 0.254 | relative viability ([9]; first compound 0.1265 µM): 0.165 | relative viability ([9]; first compound 0.4 µM): 0.158 | relative viability ([9]; first compound 1.265 µM): 0.124 | relative viability ([9]; first compound 4 µM): 0.173 | relative viability ([10]; first compound 0.04 µM): 0.522 | relative viability ([10]; first compound 0.1265 µM): 0.437 | relative viability ([10]; first compound 0.4 µM): 0.383 | relative viability ([10]; first compound 1.265 µM): 0.201 | relative viability ([10]; first compound 4 µM): 0.314 | relative viability ([11]; first compound 0.04 µM): 1.03 | relative viability ([11]; first compound 0.1265 µM): 0.789 | relative viability ([11]; first compound 0.4 µM): 0.821 | relative viability ([11]; first compound 1.265 µM): 0.637 | relative viability ([11]; first compound 4 µM): 0.889 | relative viability ([12]; first compound 0.04 µM): 0.971 | relative viability ([12]; first compound 0.1265 µM): 0.657 | relative viability ([12]; first compound 0.4 µM): 0.878 | relative viability ([12]; first compound 1.265 µM): 0.295 | relative viability ([12]; first compound 4 µM): 0.298 | relative viability ([13]; first compound 0.04 µM): 0.122 | relative viability ([13]; first compound 0.1265 µM): 0.171 | relative viability ([13]; first compound 0.4 µM): 0.173 | relative viability ([13]; first compound 1.265 µM): 0.129 | relative viability ([13]; first compound 4 µM): 0.178 | relative viability ([14]; first compound 0.04 µM): 0.743 | relative viability ([14]; first compound 0.1265 µM): 0.837 | relative viability ([14]; first compound 0.4 µM): 0.572 | relative viability ([14]; first compound 1.265 µM): 0.326 | relative viability ([14]; first compound 4 µM): 0.336 | relative viability ([15]; first compound 0.04 µM): 0.633 | relative viability ([15]; first compound 0.1265 µM): 0.569 | relative viability ([15]; first compound 0.4 µM): 0.8 | relative viability ([15]; first compound 1.265 µM): 0.739 | relative viability ([15]; first compound 4 µM): 0.539 | relative viability ([16]; first compound 0.04 µM): 0.795 | relative viability ([16]; first compound 0.1265 µM): 0.637 | relative viability ([16]; first compound 0.4 µM): 0.963 | relative viability ([16]; first compound 1.265 µM): 0.719 | relative viability ([16]; first compound 4 µM): 0.655 | relative viability ([17]; first compound 0.04 µM): 1.12 | relative viability ([17]; first compound 0.1265 µM): 1.21 | relative viability ([17]; first compound 0.4 µM): 0.677 | relative viability ([17]; first compound 1.265 µM): 0.601 | relative viability ([17]; first compound 4 µM): 0.504 | relative viability ([18]; first compound 0.04 µM): 0.239 | relative viability ([18]; first compound 0.1265 µM): 0.113 | relative viability ([18]; first compound 0.4 µM): 0.134 | relative viability ([18]; first compound 1.265 µM): 0.113 | relative viability ([18]; first compound 4 µM): 0.073 | relative viability ([19]; first compound 0.04 µM): 0.971 | relative viability ([19]; first compound 0.1265 µM): 0.968 | relative viability ([19]; first compound 0.4 µM): 1.01 | relative viability ([19]; first compound 1.265 µM): 0.646 | relative viability ([19]; first compound 4 µM): 0.593 | relative viability ([20]; first compound 0.04 µM): 0.199 | relative viability ([20]; first compound 0.1265 µM): 0.177 | relative viability ([20]; first compound 0.4 µM): 0.171 | relative viability ([20]; first compound 1.265 µM): 0.152 | relative viability ([20]; first compound 4 µM): 0.175 | relative viability ([21]; first compound 0.04 µM): 0.756 | relative viability ([21]; first compound 0.1265 µM): 0.581 | relative viability ([21]; first compound 0.4 µM): 0.317 | relative viability ([21]; first compound 1.265 µM): 0.163 | relative viability ([21]; first compound 4 µM): 0.173
